According to article PMC11995724, “Antibiotic target discovery by integrated phenotypic and activity-based profiling of electrophilic fragments” (Cell chemical biology, 2025):
Counter-ions that a name gives are not always drawn.

Assay: in vitro
Settings: human, hek293t cells

Cc1cccc(N(Cc2c(C3CC3)cnn2C)C(=O)CCl)c1 [5-D07, 2-chloro-N-[(4-cyclopropyl-1-methyl-1H-pyrazol-5-yl)methyl]-N-(3-methylphenyl)acetamide]
viability at 48 h, 25 µM: 0.857%

CC(Cl)C(=O)NC(=O)Nc1ccc2c(c1)OCCO2 (centres unmarked) [5-D08, 3-(2-chloropropanoyl)-1-(2,3-dihydro-1,4-benzodioxin-6-yl)urea]
viability at 48 h, 25 µM: 84.1%

CCN(Cc1ccc(OC)c(F)c1)C(=O)CCl [5-D09, 2-chloro-N-ethyl-N-[(3-fluoro-4-methoxyphenyl)methyl]acetamide]
viability at 48 h, 25 µM: 1.38%

N#Cc1c(NC(=O)CCl)oc(-c2ccco2)c1-c1ccco1 [5-D10, 2-chloro-N-[4'-cyano-2'-(furan-2-yl)-[2,3'-bifuran]-5'-yl]acetamide]
viability at 48 h, 25 µM: 45.5%

CCN(C(=O)CCl)C1CCCCC1 [5-D11, 2-chloro-N-cyclohexyl-N-ethylacetamide]
viability at 48 h, 25 µM: 0.918%

COc1ccc(CCNC(=O)C(C)Cl)cc1 (centres unmarked) [5-D12, 2-chloro-N-[2-(4-methoxyphenyl)ethyl]propanamide]
viability at 48 h, 25 µM: 104%

CC(Cl)C(=O)NCCN1CCn2nccc2C1 (centres unmarked) [5-D13, 2-chloro-N-(2-{4H,5H,6H,7H-pyrazolo[1,5-a]pyrazin-5-yl}ethyl)propanamide]
viability at 48 h, 25 µM: 98.4%

CC(C)CN(C(=O)CCl)C1CC1 [5-D14, 2-chloro-N-cyclopropyl-N-(2-methylpropyl)acetamide]
viability at 48 h, 25 µM: 1.19%

CN(Cc1cc(-c2ccccc2)[nH]n1)C(=O)CCl [5-D15, 2-chloro-N-methyl-N-[(5-phenyl-1H-pyrazol-3-yl)methyl]acetamide]
viability at 48 h, 25 µM: 0.109%

CN(CCOc1ccc(Cl)cc1)C(=O)CCl [5-D16, 2-chloro-N-[2-(4-chlorophenoxy)ethyl]-N-methylacetamide]
viability at 48 h, 25 µM: 0.377%

COc1ccc2c(c1)CCCN(C(=O)C(C)Cl)C2 (centres unmarked) [5-D17, 2-chloro-1-(7-methoxy-2,3,4,5-tetrahydro-1H-2-benzazepin-2-yl)propan-1-one]
viability at 48 h, 25 µM: 90.9%

O=C(CCl)Nc1nc(-c2cccs2)cs1 [5-D18, 2-chloro-N-[4-(thiophen-2-yl)-1,3-thiazol-2-yl]acetamide]
viability at 48 h, 25 µM: 0.312%

CC(Cl)C(=O)Nc1ccc(C2CC(=O)NC(=O)N2)cc1 (centres unmarked) [5-D19, 2-chloro-N-[4-(2,6-dioxo-1,3-diazinan-4-yl)phenyl]propanamide]
viability at 48 h, 25 µM: 92.5%

N#CCCN(Cc1ccco1)C(=O)CCl [5-D20, 2-chloro-N-(2-cyanoethyl)-N-[(furan-2-yl)methyl]acetamide]
viability at 48 h, 25 µM: 1.25%

Cc1ccc2nc(-c3ccc(F)cc3)c(CNC(=O)C(C)Cl)n2c1 (centres unmarked) [5-D21, 2-chloro-N-{[2-(4-fluorophenyl)-6-methylimidazo[1,2-a]pyridin-3-yl]methyl}propanamide]
viability at 48 h, 25 µM: 113%

Cc1ccc(NC(=O)C(C)Cl)cc1S(=O)(=O)N1CCOCC1 (centres unmarked) [5-D22, 2-chloro-N-[4-methyl-3-(morpholine-4-sulfonyl)phenyl]propanamide]
viability at 48 h, 25 µM: 77.8%

CN(C1CCCCC1)S(=O)(=O)c1ccc(NC(=O)CCl)cc1 [5-E03, 2-chloro-N-{4-[cyclohexyl(methyl)sulfamoyl]phenyl}acetamide]
viability at 48 h, 25 µM: -0.149%

Cc1noc(CC(NC(=O)CCl)c2ccccc2)n1 (centres unmarked) [5-E04, 2-chloro-N-[2-(3-methyl-1,2,4-oxadiazol-5-yl)-1-phenylethyl]acetamide]
viability at 48 h, 25 µM: 29.3%

COc1cccc(CN(C(=O)CCl)C23CC4CC(CC(C4)C2)C3)c1 [5-E05, N-(adamantan-1-yl)-2-chloro-N-[(3-methoxyphenyl)methyl]acetamide]
viability at 48 h, 25 µM: 0.151%

CC(C)N(Cc1ccc(N(C)C)cc1)C(=O)CCl [5-E06, 2-chloro-N-{[4-(dimethylamino)phenyl]methyl}-N-(propan-2-yl)acetamide]
viability at 48 h, 25 µM: 1.94%

Cc1ccc(S(=O)(=O)NC2CN(C(=O)CCl)C2)cc1 [5-E07, N-[1-(2-chloroacetyl)azetidin-3-yl]-4-methylbenzene-1-sulfonamide]
viability at 48 h, 25 µM: 0.324%

O=C(CCl)N1CCCCC1Cn1ccnn1 (centres unmarked) [5-E08, 2-chloro-1-{2-[(1H-1,2,3-triazol-1-yl)methyl]piperidin-1-yl}ethan-1-one]
viability at 48 h, 25 µM: 28%

O=C(CCl)NC1CC(=O)N(c2cccc(C(F)(F)F)c2)C1 (centres unmarked) [5-E09, 2-chloro-N-{5-oxo-1-[3-(trifluoromethyl)phenyl]pyrrolidin-3-yl}acetamide]
viability at 48 h, 25 µM: 0.777%

O=C(CCl)N1CCOCC1c1noc(-c2ccccc2)n1 (centres unmarked) [5-E10, 2-chloro-1-[3-(5-phenyl-1,2,4-oxadiazol-3-yl)morpholin-4-yl]ethan-1-one]
viability at 48 h, 25 µM: 1.07%

CC(NC(=O)CCl)c1cn(C)c2cc(Cl)ccc12 (centres unmarked) [5-E11, 2-chloro-N-[1-(6-chloro-1-methyl-1H-indol-3-yl)ethyl]acetamide]
viability at 48 h, 25 µM: 0.196%

COc1cc(CN(C(=O)CCl)C2CCCOC2)ccc1C (centres unmarked) [5-E12, 2-chloro-N-[(3-methoxy-4-methylphenyl)methyl]-N-(oxan-3-yl)acetamide]
viability at 48 h, 25 µM: 0.549%

CN(C)S(=O)(=O)c1cc(NC(=O)CCl)ccc1Cl [5-E13, 2-chloro-N-[4-chloro-3-(dimethylsulfamoyl)phenyl]acetamide]
viability at 48 h, 25 µM: 0.0364%

Cc1cc(CN(C(=O)CCl)c2ccc(F)cc2)nn1C [5-E14, 2-chloro-N-[(1,5-dimethyl-1H-pyrazol-3-yl)methyl]-N-(4-fluorophenyl)acetamide]
viability at 48 h, 25 µM: 0.639%

O=C(CCl)NCC1(c2ccccc2)CC1 [5-E15, 2-chloro-N-[(1-phenylcyclopropyl)methyl]acetamide]
viability at 48 h, 25 µM: 3.61%

Cc1cc(C(C)N(Cc2c(C)noc2C)C(=O)CCl)c(C)o1 (centres unmarked) [5-E16, 2-chloro-N-[(3,5-dimethyl-1,2-oxazol-4-yl)methyl]-N-[1-(2,5-dimethylfuran-3-yl)ethyl]acetamide]
viability at 48 h, 25 µM: 1.18%

CC(C)(C)C1CCc2c(sc(NC(=O)CCl)c2C#N)C1 (centres unmarked) [5-E17, N-(6-tert-butyl-3-cyano-4,5,6,7-tetrahydro-1-benzothiophen-2-yl)-2-chloroacetamide]
viability at 48 h, 25 µM: 0.117%

O=C(CCl)N1CCN(C2CCCN(C3CCOCC3)C2=O)CC1 (centres unmarked) [5-E18, 3-[4-(2-chloroacetyl)piperazin-1-yl]-1-(oxan-4-yl)piperidin-2-one]
viability at 48 h, 25 µM: 9.07%

O=C(CCl)NC1CCN(Cc2ccccc2)CC1 [5-E19, N-(1-benzylpiperidin-4-yl)-2-chloroacetamide hydrochloride]
viability at 48 h, 25 µM: 1.13%

O=C(CCl)N1CCC(C2CCCN(C(=O)C(F)(F)F)C2)CC1 (centres unmarked) [5-E20, 1-[1'-(2-chloroacetyl)-[3,4'-bipiperidin]-1-yl]-2,2,2-trifluoroethan-1-one]
viability at 48 h, 25 µM: 1.17%

CC(Cl)C(=O)Nc1sccc1C#N (centres unmarked) [5-E21, 2-chloro-N-(3-cyanothiophen-2-yl)propanamide]
viability at 48 h, 25 µM: 59%

O=C(CCl)N1C[C@@H]2C[C@H]1CN2c1ccccc1 [5-E22, 2-chloro-1-[(1S,4S)-5-phenyl-2,5-diazabicyclo[2.2.1]heptan-2-yl]ethan-1-one]
viability at 48 h, 25 µM: 0.453%

CNC(=O)C(F)(F)C1(O)CCN(C(=O)CCl)CC1 [5-F03, 2-[1-(2-chloroacetyl)-4-hydroxypiperidin-4-yl]-2,2-difluoro-N-methylacetamide]
viability at 48 h, 25 µM: 1.94%

CC1CN(C(=O)C(C)Cl)CC(C)O1 (centres unmarked) [5-F04, 2-chloro-1-(2,6-dimethylmorpholin-4-yl)propan-1-one]
viability at 48 h, 25 µM: 96.1%

CC(C)n1cc(C2=CCCN(C(=O)CCl)CC2)nn1 [5-F05, 2-chloro-1-{4-[1-(propan-2-yl)-1H-1,2,3-triazol-4-yl]-2,3,6,7-tetrahydro-1H-azepin-1-yl}ethan-1-one]
viability at 48 h, 25 µM: 1.75%

CN(Cc1ccc(N(C)C)cc1)C(=O)CCl [5-F06, 2-chloro-N-{[4-(dimethylamino)phenyl]methyl}-N-methylacetamide hydrochloride]
viability at 48 h, 25 µM: 0.499%

CCN(Cc1cccs1)C(=O)CCl [5-F07, 2-chloro-N-ethyl-N-[(thiophen-2-yl)methyl]acetamide]
viability at 48 h, 25 µM: 1.01%

CC(Cl)C(=O)Nc1ccc(-c2c[nH]cn2)cc1 (centres unmarked) [5-F08, 2-chloro-N-[4-(1H-imidazol-4-yl)phenyl]propanamide]
viability at 48 h, 25 µM: 98.2%

CC(C1CC1)N(Cc1ccccc1)C(=O)CCl (centres unmarked) [5-F09, N-benzyl-2-chloro-N-(1-cyclopropylethyl)acetamide]
viability at 48 h, 25 µM: 0.956%

CC(Cl)C(=O)Nc1ccccc1 (centres unmarked) [5-F10, 2-chloro-N-phenylpropanamide]
viability at 48 h, 25 µM: 91.9%

CC(Cl)C(=O)N1CCCCCC1 (centres unmarked) [5-F11, 1-(azepan-1-yl)-2-chloropropan-1-one]
viability at 48 h, 25 µM: 105%

CC(C1CC1)N(C(=O)CCl)C1CC1 (centres unmarked) [5-F12, 2-chloro-N-cyclopropyl-N-(1-cyclopropylethyl)acetamide]
viability at 48 h, 25 µM: 1.06%

CC(NC(=O)CCl)c1nnc(-c2cccc(F)c2)s1 (centres unmarked) [5-F13, 2-chloro-N-{1-[5-(3-fluorophenyl)-1,3,4-thiadiazol-2-yl]ethyl}acetamide]
viability at 48 h, 25 µM: 0.963%

CC(CC#N)Sc1ccccc1NC(=O)CCl (centres unmarked) [5-F14, 2-chloro-N-{2-[(1-cyanopropan-2-yl)sulfanyl]phenyl}acetamide]
viability at 48 h, 25 µM: 1.02%

CC(Cl)C(=O)N1Cc2ccccc2N(C)C[C@@H]1C (stereo partly drawn) [5-F15, 2-chloro-1-[(3S)-1,3-dimethyl-2,3,4,5-tetrahydro-1H-1,4-benzodiazepin-4-yl]propan-1-one]
viability at 48 h, 25 µM: 108%

Cc1ccc(-c2csc(NC(=O)CCl)n2)cc1C [5-F16, 2-chloro-N-[4-(3,4-dimethylphenyl)-1,3-thiazol-2-yl]acetamide]
viability at 48 h, 25 µM: 0.595%

CC(Cl)C(=O)N1CCN(C(=O)c2cccc(OC(F)F)c2)CC1 (centres unmarked) [5-F17, 2-chloro-1-{4-[3-(difluoromethoxy)benzoyl]piperazin-1-yl}propan-1-one]
viability at 48 h, 25 µM: 106%

CN(CC(=O)Nc1cccc(Cl)c1)C(=O)CCl [5-F18, 2-chloro-N-{[(3-chlorophenyl)carbamoyl]methyl}-N-methylacetamide]
viability at 48 h, 25 µM: 0.687%

CC(Cl)C(=O)Nc1cccc(-c2ncc3n2CCCC3)c1 (centres unmarked) [5-F19, 2-chloro-N-(3-{5H,6H,7H,8H-imidazo[1,5-a]pyridin-3-yl}phenyl)propanamide]
viability at 48 h, 25 µM: 95.8%
